Laboratory results taken from publication PMC3632207 (Journal of medicinal chemistry, 2013).

Biological target: rat nNOS (Rattus norvegicus, UniProt P29476)
Test: NOS inhibition, hemoglobin capture assay
Assay type: biochemical
Settings: data not shown

## Cc1cc(N)nc(CCc2cc(CCCN)cc(CCc3cc(C)cc(N)n3)c2)c1 [Compound 4, 6,6'-((5-(3-Aminopropyl)-1,3-phenylene)bis(ethane-2,1-diyl))bis(4-methylpyridin-2-amine)]
  Competition with H4B: not to be competitive with H4B
